Data: PMC4292808 (Journal of Medicinal Chemistry, 2014)
Blank lines part the entries; values can stand above or below the compound they belong to.

Tests used:
[1] = system: phosphorylation of IKKα/β and degradation of IκB-α in L929 cells; experiment: TNFα-induced NF-κB signaling, Western blot; assay type: cell-based, mouse
[2] = system: signaling in Gen2.2 cells; experiment: CL097; assay type: cell-based; conditions: human Gen2.2 cells, 1 μM, 1 h pretreatment
[3] = system: phosphorylation of p38 MAPK in TAK1-deficient MEFs; experiment: IL-1 and TGFβ-induced signaling in TAK1-deficient MEFs, Western blot; assay type: cell-based, mouse; conditions: 500 nM
[4] = system: phosphorylation of p38 MAPK and SMAD2 in WT MEFs; assay type: cell-based, mouse; conditions: WT and TAK1-deficient MEFs
[5] = In vivo pharmacokinetic studies; conditions: male, Swiss albino, mouse, plasma, iv, 1 mg/kg
p38α = p38α (Homo sapiens, UniProt Q16539); experiment: SelectScreen enzymatic assay; assay type: biochemical; conditions: KiNativ and enzymatic assays, in words
Sequence of p38α (Q16539 whole entry): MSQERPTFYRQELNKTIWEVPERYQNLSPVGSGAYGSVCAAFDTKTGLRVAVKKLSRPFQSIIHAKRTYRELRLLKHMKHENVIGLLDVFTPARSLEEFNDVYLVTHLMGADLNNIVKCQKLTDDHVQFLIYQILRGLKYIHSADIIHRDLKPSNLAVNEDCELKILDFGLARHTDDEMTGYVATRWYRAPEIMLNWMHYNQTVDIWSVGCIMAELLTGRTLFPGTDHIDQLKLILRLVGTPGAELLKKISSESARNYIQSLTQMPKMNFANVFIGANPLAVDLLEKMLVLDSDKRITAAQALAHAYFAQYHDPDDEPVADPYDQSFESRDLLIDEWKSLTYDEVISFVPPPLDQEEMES

[6] = system: BCR-ABL-dependent Ba/F3 cells; experiment: Ba/F3 cell proliferation assay; assay type: cell-based; conditions: Mus musculus, BaF3, read-out: cell growth inhibition
MAP4K2 = biological target: T1, MAP4K2 (Homo sapiens, UniProt Q12851); experiment: KiNativ HUH7 lysate; assay type: binding; conditions: in words
T1 sequence (Q12851 1-820): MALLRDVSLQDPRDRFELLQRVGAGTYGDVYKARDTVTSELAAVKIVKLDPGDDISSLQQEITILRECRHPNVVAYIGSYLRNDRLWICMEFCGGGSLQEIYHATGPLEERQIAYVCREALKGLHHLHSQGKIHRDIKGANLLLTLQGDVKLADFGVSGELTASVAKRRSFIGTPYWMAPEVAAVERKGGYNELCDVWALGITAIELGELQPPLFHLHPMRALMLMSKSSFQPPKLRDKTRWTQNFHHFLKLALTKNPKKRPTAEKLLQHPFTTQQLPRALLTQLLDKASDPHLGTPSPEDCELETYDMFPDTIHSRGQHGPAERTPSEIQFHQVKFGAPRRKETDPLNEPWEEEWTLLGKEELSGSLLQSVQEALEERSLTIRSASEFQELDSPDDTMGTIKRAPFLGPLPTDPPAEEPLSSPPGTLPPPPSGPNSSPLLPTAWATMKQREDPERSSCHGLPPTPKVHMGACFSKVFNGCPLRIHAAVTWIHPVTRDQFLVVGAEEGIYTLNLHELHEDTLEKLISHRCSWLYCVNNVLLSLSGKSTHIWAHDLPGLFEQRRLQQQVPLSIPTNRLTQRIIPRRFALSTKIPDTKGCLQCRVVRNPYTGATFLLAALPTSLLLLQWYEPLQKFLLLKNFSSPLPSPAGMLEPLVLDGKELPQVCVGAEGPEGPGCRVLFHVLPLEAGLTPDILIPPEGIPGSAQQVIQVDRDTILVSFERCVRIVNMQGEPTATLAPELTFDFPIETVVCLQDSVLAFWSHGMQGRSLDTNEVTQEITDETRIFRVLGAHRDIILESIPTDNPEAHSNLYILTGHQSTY

TAK1 [7] = biological target: T2, TAK1 (Homo sapiens, UniProt O43318); experiment: KiNativ HUH7 lysate; assay type: binding; conditions: in words
T2 sequence (O43318 1-606): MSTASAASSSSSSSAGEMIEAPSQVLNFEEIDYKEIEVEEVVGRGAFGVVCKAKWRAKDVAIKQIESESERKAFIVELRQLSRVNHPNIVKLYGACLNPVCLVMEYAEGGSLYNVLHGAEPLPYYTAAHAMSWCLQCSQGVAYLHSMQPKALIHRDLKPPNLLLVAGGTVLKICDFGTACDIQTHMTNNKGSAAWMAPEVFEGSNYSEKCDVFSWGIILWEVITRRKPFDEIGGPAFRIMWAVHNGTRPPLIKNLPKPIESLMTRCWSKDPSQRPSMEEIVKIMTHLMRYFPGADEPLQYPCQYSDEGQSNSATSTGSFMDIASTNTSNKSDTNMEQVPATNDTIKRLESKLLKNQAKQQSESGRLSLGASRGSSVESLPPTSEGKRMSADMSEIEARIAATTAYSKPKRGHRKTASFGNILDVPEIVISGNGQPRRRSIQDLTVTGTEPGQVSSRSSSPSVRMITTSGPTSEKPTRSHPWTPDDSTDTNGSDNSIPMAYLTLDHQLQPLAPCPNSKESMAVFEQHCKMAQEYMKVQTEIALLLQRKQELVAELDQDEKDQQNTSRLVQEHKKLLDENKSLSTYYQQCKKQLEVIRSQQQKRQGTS

[8] = system: phosphorylation of p105, p38 and JNK1/2 in 293 IL-1R cells; experiment: IL-1α-induced signaling, Western blot; assay type: cell-based; conditions: human 293 IL-1R cells stimulated with IL-1α
TAK1 [9] = biological target: T3, TAK1 (Homo sapiens, UniProt O43318); experiment: biochemical
T3 sequence (O43318 1-303 limits assumed): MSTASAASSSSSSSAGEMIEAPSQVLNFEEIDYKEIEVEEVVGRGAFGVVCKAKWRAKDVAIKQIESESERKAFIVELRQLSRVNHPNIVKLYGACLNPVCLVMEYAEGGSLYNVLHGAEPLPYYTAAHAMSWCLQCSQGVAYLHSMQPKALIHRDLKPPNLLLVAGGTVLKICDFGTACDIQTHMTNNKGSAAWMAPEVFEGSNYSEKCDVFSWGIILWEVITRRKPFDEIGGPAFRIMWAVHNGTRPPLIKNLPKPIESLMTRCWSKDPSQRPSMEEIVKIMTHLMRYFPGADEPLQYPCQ

[10] = system: phosphorylation of p105, p38 and JNK1/2 in MEFs; experiment: IL-1α-induced signaling, Western blot; assay type: cell-based, mouse; conditions: MEFs stimulated with IL-1α
[11] = 100 nM, 30 min pretreatment, TNFα 5 min, Western blot

Compound: CCN1CCN(Cc2ccc(C(=O)Nc3ccc(C)c(Oc4ccnc5[nH]ccc45)c3)cc2C(F)(F)F)CC1 [Compound 11]
effect on TNFα-induced phosphorylation of IKKα/β and degradation of IκB-α [1, 11]: no effect

Compound: CNc1cc(Oc2cc(C(=O)Nc3cc(-n4cnc(C)c4)cc(C(F)(F)F)c3)ccc2C)ncn1 [Compound 16]
CL097-induced signaling [2]: not able to block | effect on TNFα-induced phosphorylation of IKKα/β and degradation of IκB-α [1, 11]: no effect | IL-1-induced phosphorylation of p38 [3]: complete inhibition | IL-1 and TGFβ-induced p38 MAPK phosphorylation [4]: dose-dependent inhibition | TGFβ-induced phosphorylation of SMAD2 [4]: did not inhibit

Compound: CNc1cc(Oc2cc(C(=O)Nc3cc(N4CCN(C)CC4)cc(C(F)(F)F)c3)ccc2C)ncn1 [Compound 17]
effect on TNFα-induced phosphorylation of IKKα/β and degradation of IκB-α [1, 11]: no effect | effect on TNFα-induced phosphorylation of IKKα/β and degradation of IκB-α ([1]; concentrations up to 1 μM): not very effective | IL-1-induced phosphorylation of p38 [3]: complete inhibition | IL-1 and TGFβ-induced p38 MAPK phosphorylation [4]: dose-dependent inhibition | TGFβ-induced phosphorylation of SMAD2 [4]: did not inhibit

clearance at 24 h [5]: 65.8 mL/min/kg
Compound: CCN1CCN(Cc2ccc(NC(=O)c3ccc(C)c(Oc4ncnc5[nH]ccc45)c3)cc2C(F)(F)F)CC1 [Compound 3]

activity against p38α (p38α): inactive
Compound: CCN1CCN(Cc2ccc(NC(=O)c3cccc(/C=C/c4cnc5[nH]ccc5c4OC)c3)cc2C(F)(F)F)CC1 [Compound 24]

Compound: Cc1cn(-c2cc(NC(=O)c3ccc(C)c(Oc4ccnc5[nH]ccc45)c3)cc(C(F)(F)F)c2)cn1 [Compound 12]
effect on TNFα-induced phosphorylation of IKKα/β and degradation of IκB-α [1, 11]: no effect

Compound: CCN1CCN(Cc2ccc(NC(=O)c3ccc(C)c(/C=C/c4cnc5[nH]ccc5c4OC)c3)cc2C(F)(F)F)CC1 [Compound 2, (E)-N-(4-((4-Ethylpiperazin-1-yl)methyl)-3-(trifluoromethyl)phenyl)-3-(2-(4-methoxy-1H-pyrrolo[2,3-b]pyridin-5-yl)vinyl)-4-methylbenzamide]
inhibition at 0.01 µM [6]: > 50% | effect on TNFα-induced phosphorylation of IKKα/β and degradation of IκB-α [1, 11]: comparable cellular potency

Compound: CCN1CCN(Cc2ccc(NC(=O)c3cccc(Oc4ccnc5[nH]ccc45)c3)cc2C(F)(F)F)CC1 [Compound 10]
inhibition at 0.01 µM [6]: > 50%

activity against MAP4K2 (MAP4K2): inactive | activity against TAK1 (TAK1 [7]): inactive
Compound: CCN1CCN(Cc2ccc(NC(=O)c3ccc(C)c(Oc4ccnc(C(=O)NC)c4)c3)cc2C(F)(F)F)CC1 [Compound 9]

activity against p38α (p38α): inactive
Compound: CCN1CCN(Cc2ccc(NC(=O)c3cccc(CCc4cnc5[nH]ccc5c4OC)c3)cc2C(F)(F)F)CC1 [Compound 23]

Compound: C[S+]([O-])c1ccc(-c2nc(-c3ccc(F)cc3)c(-c3ccncc3)[nH]2)cc1 (centres unmarked) [Compound 38, SB203580, reference compound]
effect on TNFα-induced phosphorylation of IKKα/β and degradation of IκB-α [1, 11]: no effect

Compound: CCN1CCN(Cc2ccc(NC(=O)c3ccc(OC)c(Oc4ncnc5[nH]ccc45)c3)cc2C(F)(F)F)CC1 [S1]
CL097-induced signaling [2]: only partially inhibited signaling

Compound: CNC(=O)c1ccc(C)c(-n2c(C)cc(OCc3ccc(F)cc3F)c(Br)c2=O)c1 [Compound 39, PH-797804, reference compound]
effect on TNFα-induced phosphorylation of IKKα/β and degradation of IκB-α [1, 11]: no effect

Compound: COc1cc(O)c2c(c1)/C=C/C[C@H](O)[C@H](O)C(=O)/C=C\C[C@H](C)OC2=O [Compound 37, 5Z-7-oxozeaenol, reference compound]
TGFβ-induced phosphorylation of SMAD2 [4]: inhibited phosphorylation of both p38 and SMAD2

clearance at 24 h [5]: 99.2 mL/min/kg
Compound: CCN1CCN(Cc2ccc(NC(=O)c3ccc(C)c(Oc4ncnc5[nH]ncc45)c3)cc2C(F)(F)F)CC1 [Compound 4]

clearance at 24 h [5]: 26.5 mL/min/kg
Compound: CCN1CCN(Cc2ccc(NC(=O)c3ccc(C)c(Oc4ncnc5[nH]c(C)cc45)c3)cc2C(F)(F)F)CC1 [Compound 5]

IC50 (TAK1 [9]): 15 nM | half-life [5]: 2 h
Compound: CCN1CCN(Cc2ccc(NC(=O)c3ccc(C)c(Oc4ccnc5[nH]ccc45)c3)cc2C(F)(F)F)CC1 [Compound 1, 3-((1H-Pyrrolo[2,3-b]pyridin-4-yl)oxy)-N-(4-((4-ethylpiperazin-1-yl)methyl)-3-(trifluoromethyl)phenyl)-4-methylbenzamide]
phosphorylation levels of p105, p38 and JNK1/2 [8]: inhibited in a dose-dependent manner | CL097-induced signaling [2]: blocked signaling | effect on TNFα-induced phosphorylation of IKKα/β and degradation of IκB-α [1, 11]: comparable cellular potency | phosphorylation levels of p105, p38 and JNK1/2 [10]: inhibited in a dose-dependent manner
